Data: patent US9765018B2, “IDO inhibitors” (BRISTOL-MYERS SQUIBB COMPANY, priority 2013, dated 2017)

Key:
Human IDO1 = Human IDO1 (Homo sapiens (Human), UniProt P14902); assay: IDO Kynurenine Assay with Human IDO1/HEK293 Cells; format: cell-based; settings: HEK293 cells with human IDO1; read-out: HEK human IDO-1 (IC50)
Procedure: IDO Kynurenine Assay with Human IDO1/HEK293 Cells
Human IDO1/HEK293 cells were seeded at 10,000 cells per 50 uL per well with RPMI/phenol red free media contains 10% FBS in a 384-well black wall clear bottom tissue culture plate (Matrix Technologies LLC) 125 nL of certain concentration of compound was then added to each well using ECHO liquid handling systems. The cells were incubated for 20 hours in 37° C. incubator with 5% CO2.
The compound treatments were stopped by adding Trichloroacetic Acid (Sigma-Aldrich) to a final concentration at 0.2%. The cell plate was further incubated at 50° C. for 30 minute. The equal volume supernatant (20 uL) and 0.2% (w/v) Ehrlich reagent (4-dimethylaminobenzaldehyde, Sigma-Aldrich) in glacial acetic acid were mixed in a new clear bottom 384-well plate. This plate was then incubated at room temperature for 30 minute. The absorbance at 490 nm was measured on Envision plate reader.

IDO [1] = molecular target: T1, IDO (Homo sapiens (Human), UniProt P14902); assay: LLE_IDO_ABS_DR (IDO assay, method not described)
T1 sequence (P14902 whole entry): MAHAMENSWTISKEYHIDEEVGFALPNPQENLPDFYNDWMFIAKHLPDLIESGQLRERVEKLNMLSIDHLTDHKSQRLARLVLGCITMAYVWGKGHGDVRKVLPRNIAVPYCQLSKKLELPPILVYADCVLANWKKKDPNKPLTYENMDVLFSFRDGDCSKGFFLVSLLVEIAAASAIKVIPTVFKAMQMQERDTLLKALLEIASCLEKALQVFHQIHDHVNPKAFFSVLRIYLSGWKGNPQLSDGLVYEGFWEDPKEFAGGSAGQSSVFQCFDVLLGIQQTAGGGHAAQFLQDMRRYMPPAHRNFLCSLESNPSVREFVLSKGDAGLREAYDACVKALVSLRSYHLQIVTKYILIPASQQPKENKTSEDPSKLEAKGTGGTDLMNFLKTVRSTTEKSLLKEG

IDO [2] = molecular target: T1, IDO; assay: Kynurenine assay in IFN-γ-stimulated Hela cells; format: cell-based; settings: 20 h, read-out: Hela Kyurenine (IC50)
Outline: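 Kynurenine in supernatant is read at 490 nm after Ehrlich reagent (10 min RT), following TCA stop and 30 min at 50° C hydrolysis. Before that, Hela cells in phenol red-free RPMI/10% FBS were co-treated 20 h at 37° C with 100 ng/mL IFN-γ and compound (30 μM top, 3-fold series to 1.5 nM).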

Sequence of Human IDO1 (P14902 whole entry): as above

Row | IC50 (Human IDO1) [µM] | IC50 (IDO [1]) [µM] | IC50 (IDO [2]) [µM] | Compound
1 | 0.01 | 0.00947 | – | CCCOc1c(C/C=C/C(F)(F)F)cc(-c2ccccc2-c2nnn[nH]2)cc1NC(=O)Nc1ccc(C)cc1 [Example 32, (E)-1-(4-Propoxy-2′-(1H-tetrazol-5-yl)-5-(4,4,4-trifluorobut-2-en-1-yl)-[1,1′-biphenyl]-3-yl)-3-(p-tolyl)urea]
2 | 0.06 | 0.03 | – | CCCOc1c(Br)cc(-c2ccccc2-c2nnn[nH]2)cc1NC(=O)Nc1ccc(C)cc1 [Example 283]
3 | 0.02 | 0.04 | – | CCCOc1c(CCCC(F)(F)F)cc(-c2ccccc2-c2nnn[nH]2)cc1NC(=O)Nc1ccc(C)cc1 [Example 31, 1-(4-Propoxy-2′-(1H-tetrazol-5-yl)-5-(4,4,4-trifluorobutyl)-[1,1′-biphenyl]-3-yl)-3-(p-tolyl)urea]
4 | 0.02 | 0.03 | – | CCCOc1c(CCCc2ccccc2)cc(-c2ccccc2C(=O)O)cc1NC(=O)Nc1ccc(C)cc1 [Example 36, 3′-(3-Phenylpropyl)-4′-propoxy-5′-(3-p-tolylureido)biphenyl-2-carboxylic acid]
5 | 7.5 | – | 1.89 | COc1cccc(NC(=O)Nc2cc(-c3cccc(C(=O)O)c3)ccc2Oc2ccccc2C(C)(C)C)c1 [Example 229, 4′-(2-tert-butylphenoxy)-3′-(3-(3-methoxyphenyl)ureido)biphenyl-3-carboxylic acid]
6 | 7.5 | – | 1.81 | COc1ccc(NC(=O)Nc2cc(-c3cccc(C(=O)O)c3)ccc2Oc2ccccc2C(C)(C)C)cc1 [Example 230, 4′-(2-tert-butylphenoxy)-3′-(3-(4-methoxyphenyl)ureido)biphenyl-3-carboxylic acid]
7 | 0.03 | 0.01 | – | C=CC(c1ccccc1)c1cc(-c2ccccc2-c2nnn[nH]2)cc(NC(=O)Nc2ccc(C)cc2)c1OCCC (racemic) [Example 8, 1-(5-(1-Phenylallyl)-4-propoxy-2′-(1H-tetrazol-5-yl)-[1,1′-biphenyl]-3-yl)-3-(p-tolyl)urea]
8 | 9.19 | – | 0.79 | Cc1ccc(NC(=O)Nc2cc(-c3cccc(C(=O)O)c3)ccc2Oc2ccccc2C(C)(C)C)cc1 [Example 226, 4′-(2-tert-butylphenoxy)-3′-(3-p-tolylureido) biphenyl-3-carboxylic acid]
9 | 5.17 | – | 2.24 | COc1ccc(-c2ccc(Oc3cccc4c3OC(C)(C)C4)c(NC(=O)Nc3ccc(C)cc3)c2)cc1C(=O)O [Example 135, 4′-(2,2-dimethyl-2,3-dihydrobenzofuran-7-yloxy)-4-methoxy-3′-(3-p-tolylureido)biphenyl-3-carboxylic acid]
10 | 7.5 | – | 1.8 | CC(C)(C)c1ccccc1Oc1ccc(-c2cccc(C(=O)O)c2)cc1NC(=O)Nc1ccc(Cl)cc1 [Example 232, 4′-(2-tert-butylphenoxy)-3′-(3-(4-chlorophenyl)ureido)biphenyl-3-carboxylic acid]
11 | 7.5 | – | 2.26 | Cc1ccc(NC(=O)Nc2cc(-c3cc(Cl)cc(C(=O)O)c3)cnc2Oc2ccccc2C(C)(C)C)cc1 [Example 337]
12 | 7.5 | – | 2.89 | CC(C)(C)c1ccccc1Oc1ccc(-c2cccc(C(=O)O)c2)cc1NC(=O)Nc1ccc(Br)cc1 [Example 233, 3′-(3-(4-bromophenyl)ureido)-4′-(2-tert-butylphenoxy) biphenyl-3-carboxylic acid]
13 | 6.19 | – | 2.09 | COc1ccccc1Oc1ccc(-c2ccc(OC)c(C(=O)O)c2)cc1NC(=O)Nc1ccc(C)cc1 [Example 69, 4-methoxy-4′-(2-methoxyphenoxy)-3′-(3-p-tolylureido)biphenyl-3-carboxylic acid]
14 | 6.18 | – | 2.42 | Cc1ccc(NC(=O)Nc2cc(-c3ccc(Cl)c(C(=O)O)c3)ccc2Oc2ccccc2C(C)(C)C)cc1 [Example 1, 4′-(2-tert-Butylphenoxy)-4-chloro-3′-(3-p-tolylureido)biphenyl-3-carboxylic acid]
15 | 7.5 | – | 2.64 | CC(C)(C)c1ccccc1Oc1ccc(-c2cccc(C(=O)O)c2)cc1NC(=O)Nc1ccc(OC(F)F)cc1 [Example 223, 4′-(2-tert-butylphenoxy)-3′-(3-(4-(difluoromethoxy)phenyl)ureido) biphenyl-3-carboxylic acid]
16 | 7.5 | – | 1.02 | Cc1ccccc1NC(=O)Nc1cc(-c2cccc(C(=O)O)c2)ccc1Oc1ccccc1C(C)(C)C [Example 224, 4′-(2-tert-butylphenoxy)-3′-(3-o-tolylureido) biphenyl-3-carboxylic acid]
17 | – | 0.27 | 0.15 | CC(C)(C)c1ccccc1Oc1ccc(-c2ccccc2-c2nnn[nH]2)cc1NC(=O)Nc1ccccc1 [Example 180, 1-(4-(2-tert-butylphenoxy)-2′-(1H-tetrazol-5-yl)biphenyl-3-yl)-3-phenylurea]
18 | – | 2.33 | 0.86 | Cc1ccccc1NC(=O)Nc1cc(-c2ccccc2-c2nnn[nH]2)ccc1Oc1cccc2c1CCCC2 [Example 187, 1-(4-(5,6,7,8-tetrahydronaphthalen-1-yloxy)-2′-(1H-tetrazol-5-yl)biphenyl-3-yl)-3-o-tolylurea]
19 | – | 2.05 | 0.13 | COc1ccc(-c2ccc(Oc3cccc(C(C)(C)C)c3)c(NC(=O)Nc3ccccc3Cl)c2)cc1C(=O)O [Example 110, 4′-(3-tert-butylphenoxy)-3′-(3-(2-chlorophenyl)ureido)-4-methoxybiphenyl-3-carboxylic acid]
20 | – | 0.76 | 0.19 | COc1ccc(-c2ccc(Oc3ccccc3C3CC3)c(NC(=O)Nc3cccc(C)c3)c2)cc1C(=O)O [Example 126, 4′-(2-cyclopropylphenoxy)-4-methoxy-3′-(3-m-tolylureido)biphenyl-3-carboxylic acid]
21 | – | 3.06 | 0.17 | COc1ccc(-c2ccc(Oc3ccccc3C(C)(C)C)c(NC(=O)Nc3ccc(C)cc3C)c2)cc1C(=O)O [Example 94, 4′-(2-(tert-butyl)phenoxy)-3′-(3-(2,4-dimethylphenyl)ureido)-4-methoxy-[1,1′-biphenyl]-3-carboxylic acid]
22 | – | 0.54 | 0.14 | COc1ccc(-c2ccc(Oc3cccc4c3CCCC4)c(NC(=O)Nc3ccc(F)cc3F)c2)cc1C(=O)O [Example 154, 3′-(3-(2,4-difluorophenyl)ureido)-4-methoxy-4′-(5,6,7,8-tetrahydronaphthalen-1-yloxy)biphenyl-3-carboxylic acid]
23 | – | 0.51 | 0.15 | COc1ccc(-c2ccc(Oc3cccc4c3CCC4)c(NC(=O)Nc3cccc(C)c3)c2)cc1C(=O)O [Example 144, 4′-(2,3-dihydro-1H-inden-4-yloxy)-4-methoxy-3′-(3-m-tolylureido)biphenyl-3-carboxylic acid]
24 | 6.18 | – | 2.42 | Cc1ccc(NC(=O)Nc2cc(-c3cncc(C(=O)O)c3)cnc2Oc2ccccc2)cc1 [Example 339]
25 | – | 2.24 | 1.25 | COc1ccc(-c2ccc(Oc3ccccc3C(C)(C)C)c(NC(=O)Nc3ccccc3C)c2)c(C(=O)O)c1 [Example 162, 4′-(2-tert-butylphenoxy)-4-methoxy-3′-(3-o-tolylureido)biphenyl-2-carboxylic acid]
26 | – | 4.81 | 3.38 | COc1ccc(-c2cnc(Oc3cccc4c3CCCC4)c(NC(=O)Nc3ccccc3Cl)c2C)cc1C(=O)O [Example 3, 5-(5-(3-(2-Chlorophenyl)ureido)-4-methyl-6-(5,6,7,8-tetrahydronaphthalen-1-yloxy)pyridin-3-yl)-2-methoxybenzoic acid]
27 | – | 0.42 | 0.2 | Cc1ccc(NC(=O)Nc2cc(-c3ccc(C(F)(F)F)cc3C(=O)O)ccc2Oc2ccccc2C(C)(C)C)cc1 [Example 177, 4′-(2-tert-butylphenoxy)-3′-(3-p-tolylureido)-4-(trifluoromethyl)biphenyl-2-carboxylic acid]
28 | – | 1.92 | 1.28 | CC(C)(C)c1ccccc1Oc1ccc(-c2cccc(Cl)c2C(=O)O)cc1NC(=O)Nc1ccccc1Cl [Example 172, 4′-(2-tert-butylphenoxy)-3-chloro-3′-(3-(2-chlorophenyl)ureido)biphenyl-2-carboxylic acid]
29 | – | 4.06 | 0.86 | CC(C)(C)c1ccccc1Oc1ccc(-c2ccc(Cl)cc2C(=O)O)cc1NC(=O)Nc1ccccc1Cl [Example 158, 4′-(2-tert-butylphenoxy)-4-chloro-3′-(3-(2-chlorophenyl)ureido)biphenyl-2-carboxylic acid]
30 | – | 7.19 | 0.71 | COc1ccc(-c2ccc(Oc3cccc4c3CCCC4=O)c(NC(=O)Nc3ccccc3C)c2)cc1C(=O)O [Example 150, 4-methoxy-4′-(5-oxo-5,6,7,8-tetrahydronaphthalen-1-yloxy)-3′-(3-o-tolylureido)biphenyl-3-carboxylic acid]

Row | Compound | IC50 (Human IDO1) [µM] | IC50 (IDO [1]) [µM] | IC50 (IDO [2]) [µM]
31 | CCCOc1c(/C=C/CC(F)(F)F)cc(-c2ccccc2-c2nnn[nH]2)cc1NC(=O)Nc1ccc(C)cc1 [Example 29, (E)-1-(4-Propoxy-2′-(1H-tetrazol-5-yl)-5-(4,4,4-trifluorobut-1-en-1-yl)-[1,1′-biphenyl]-3-yl)-3-(p-tolyl)urea] | 0.03 | 0.03 | –
